{"source": "patent US11673866B2", "about": "“Estrogen receptor beta ligands for the prevention and treatment of multiple sclerosis (MS) and other demyelinating, inflammatory and neurodegenerative diseases” (The Board of Trustees of the University of Illinois, priority 2018, dated 2023)", "key": {"primary OPCs/OLs": {"test_system": "primary OPCs/OLs", "experiment": "Primary OPC/OL differentiation and survival (O4, MOG, DAPI staining)", "type": "cell-based, mouse", "details": "vs vehicle-treated cells, FIG. 12B", "from_the_text": "FIG. 12A is representative images of primary OPCs/OLs from wells containing differentiating media in the presence of different analogues. OLs were immunostained with an antigen on the surface of oligodendrocyte progenitors, O4, a marker of mature oligodendrocytes, myelin oligodendrocyte glycoprotein, MOG and co-stained with nuclear stain DAPI.\nFIG. 12B and FIG. 12C show quantification of the effects of treatment on the number of MOG+ OLs and the number of total cells (DAPI), respectively. […] There were 3 wells/treatment group. n=3 independent experiments were performed. One-Way ANOVA with Dunnett's multiple comparisons test.\nThe effect on cell differentiation and survival of estrogen receptor § (ERP) ligand IndCl and analogs were investigated. Some estrogen receptor § (ERP) ligands increase primary mouse oligodendrocyte differentiation (FIGS. 12A-12C)."}, "[1]": {"experiment": "Uterus to body weight ratio in EAE mice", "type": "in vivo, mouse", "details": "therapeutic treatment (postEAE), female EAE mice", "from_the_text": "Estrogens increase uterine weight by acting primarily through ERα (Hewitt and Korach, 2003)."}}, "data": [{"smiles": "Oc1ccc(-n2nc3ccc(O)cc3c2Cl)cc1", "note": "[IndCl, chloroindazole]", "values": [{"measurement": "number of MOG+ OLs", "setting": "primary OPCs/OLs", "value": "significant increase"}, {"measurement": "uterus to body weight ratio", "setting": "[1]", "value": "neither IndCl nor its analogues significantly increased this ratio"}]}]}
